Laboratory results as given in ChEMBL document CHEMBL4680354, “Design, synthesis and biological evaluation of novel indanone containing spiroisoxazoline derivatives with selective COX-2 inhibition as anticancer agents” (Bioorg Med Chem, 2021).

Tests used:
MCF7 [1] = experiment: Antiproliferative activity against human MCF-7 cells assessed as reduction in cell viability incubated for 72 hrs by MTT assay; format: functional, cell-based; details: MCF7, 72 h
HT-29 = experiment: Antiproliferative activity against human HT-29 cells assessed as reduction in cell viability incubated for 72 hrs by MTT assay; format: functional, cell-based; details: HT-29, 72 h
MCF7 [2] = experiment: Antiproliferative activity against human cells MCF-7 assessed as reduction in cell viability incubated for 24 hrs by MTT assay; format: functional, cell-based; details: MCF7, 24 h
MCF-10A = experiment: Antiproliferative activity against human MCF10A cells assessed as reduction in cell viability incubated for 72 hrs by MTT assay; format: functional, cell-based
[3] = biological target: T1, Prostaglandin G/H synthase 1 (Ovis aries, UniProt P05979); experiment: Inhibition of Ovine COX-1 by chemiluminescent enzyme method
T1 sequence (P05979 whole entry): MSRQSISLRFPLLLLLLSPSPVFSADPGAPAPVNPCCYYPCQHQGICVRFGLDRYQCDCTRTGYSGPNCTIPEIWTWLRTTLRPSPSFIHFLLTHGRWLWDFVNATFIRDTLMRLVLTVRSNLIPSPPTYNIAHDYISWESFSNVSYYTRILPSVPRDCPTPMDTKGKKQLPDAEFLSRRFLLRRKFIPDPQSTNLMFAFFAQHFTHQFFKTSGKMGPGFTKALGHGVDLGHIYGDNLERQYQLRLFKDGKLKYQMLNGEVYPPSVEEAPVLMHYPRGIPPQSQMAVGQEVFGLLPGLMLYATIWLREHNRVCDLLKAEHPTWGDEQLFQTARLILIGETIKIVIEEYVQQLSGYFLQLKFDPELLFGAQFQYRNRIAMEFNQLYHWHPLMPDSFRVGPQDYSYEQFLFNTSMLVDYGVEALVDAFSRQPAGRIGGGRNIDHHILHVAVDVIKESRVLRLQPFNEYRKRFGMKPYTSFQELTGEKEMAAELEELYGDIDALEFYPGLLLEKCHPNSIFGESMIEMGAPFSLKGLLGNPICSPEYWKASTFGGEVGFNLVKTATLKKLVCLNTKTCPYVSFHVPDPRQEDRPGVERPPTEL

MCF7 [4] = experiment: Antiproliferative activity against human cells MCF-7 assessed as reduction in cell viability incubated for 48 hrs by MTT assay; format: functional, cell-based; details: MCF7, 48 h
HEK293 = experiment: Cytotoxicity against human HEK293 cells assessed as reduction in cell viability incubated for 72 hrs by MTT assay; format: cell-based; details: HEK293, 72 h
MCF7 [5] = experiment: Induction of apoptosis in human MCF7 cells assessed as early apoptotic cells at IC50 measured after 72 hrs by Annexin-V/propidium iodide staining-based flow cytometric analysis (reference value: 1.1%); format: functional
MCF7 [6] = experiment: Induction of apoptosis in human MCF7 cells assessed as viable cells at IC50 measured after 72 hrs by Annexin-V/propidium iodide staining-based flow cytometric analysis (reference value: […]); format: functional
MCF7 [7] = experiment: Induction of apoptosis in human MCF7 cells assessed as necrotic cells at IC50 measured after 72 hrs by Annexin-V/propidium iodide staining-based flow cytometric analysis (reference value: 4.7%); format: functional
MCF7 [8] = experiment: Induction of apoptosis in human MCF7 cells assessed as late apoptotic cells at IC50 measured after 72 hrs by Annexin-V/propidium iodide staining-based flow cytometric analysis (reference value: 92.7%); format: functional

Row | SMILES | IC50 (MCF7 [1]) [µM] | IC50 (HT-29) [µM] | IC50 (MCF7 [2]) [µM] | IC50 [3] [µM] | IC50 (MCF7 [4]) [µM] | IC50 (MCF-10A) [µM] | IC50 (HEK293) [µM] | Activity (MCF7 [5]) [%] | Activity (MCF7 [6]) [%] | Activity (MCF7 [7]) [%] | Activity (MCF7 [8]) [%]
1 | Cc1ccc(C2=NOC3(Cc4ccccc4C3=O)C2c2ccc(S(C)(=O)=O)cc2)cc1 (configuration not stated) | 0.17 | 73 | – | 10.1 | 25.7 | > 100 | 82.4 | – | – | – | –
2 | COc1cc(C2=NOC3(Cc4ccccc4C3=O)C2c2ccc(S(C)(=O)=O)cc2)cc(OC)c1OC (configuration not stated) | 0.87 | 112 | 17.6 | 12.8 | 3.96 | > 100 | 70.8 | – | – | – | –
3 | CS(=O)(=O)c1ccc(C2C(c3ccc(Cl)cc3)=NOC23Cc2ccccc2C3=O)cc1 (configuration not stated) | 1.2 | 99.3 | – | 9.43 | 64.8 | 22.5 | 37.7 | – | – | – | –
4 | COc1ccc(C2=NOC3(Cc4ccccc4C3=O)C2c2ccc(S(C)(=O)=O)cc2)cc1 (configuration not stated) | 0.65 | 68.5 | – | 9.89 | > 100 | > 100 | > 100 | – | – | – | –
5 | CS(=O)(=O)c1ccc(C2C(c3ccccc3)=NOC23Cc2ccccc2C3=O)cc1 (configuration not stated) | 8.53 | 239 | – | 11.4 | 17.1 | > 100 | > 100 | – | – | – | –

These reach a lower IC50 (HT-29). Values come first.

Row | IC50 (MCF7 [1]) [µM] | IC50 (HT-29) [µM] | IC50 (MCF7 [2]) [µM] | IC50 [3] [µM] | IC50 (MCF7 [4]) [µM] | SMILES | IC50 (MCF-10A) [µM] | IC50 (HEK293) [µM] | Activity (MCF7 [5]) [%] | Activity (MCF7 [6]) [%] | Activity (MCF7 [7]) [%] | Activity (MCF7 [8]) [%]
6 | 0.89 | 1.74 | 0.92 | – | – | CC[C@]1(O)C[C@H]2CN(CCc3c([nH]c4ccccc34)[C@@](C(=O)OC)(c3cc4c(cc3OC)N(C=O)[C@H]3[C@@](O)(C(=O)OC)[C@H](OC(C)=O)[C@]5(CC)C=CCN6CC[C@]43[C@@H]65)C2)C1 [VINCRISTINE] | – | – | – | – | – | –
7 | – | 3.18 | 0.23 | – | – | CC[C@]1(O)C[C@@H]2CN(CCc3c([nH]c4ccccc34)[C@@](C(=O)OC)(c3cc4c(cc3OC)N(C)[C@H]3[C@@](O)(C(=O)OC)[C@H](OC(C)=O)[C@]5(CC)C=CCN6CC[C@]43[C@@H]65)C2)C1 [VINBLASTINE] | – | – | – | – | – | –
8 | – | 1.57 | – | – | – | COc1cccc2c1C(=O)c1c(O)c3c(c(O)c1C2=O)C[C@@](O)(C(=O)CO)C[C@@H]3O[C@H]1C[C@H](N)[C@H](O)[C@H](C)O1 [DOXORUBICIN] | – | – | – | – | – | –
9 | 0.03 | 43.7 | 10.5 | 12.1 | 1.03 | COc1ccc(C2=NOC3(Cc4ccccc4C3=O)C2c2ccc(S(C)(=O)=O)cc2)cc1OC (configuration not stated) | > 100 | > 100 | 37.2 | 2.5 | 15.6 | 44.7
10 | – | 18 | 19.8 | – | 16 | Cc1ccc(-c2cc(C(F)(F)F)nn2-c2ccc(S(N)(=O)=O)cc2)cc1 [CELECOXIB] | – | – | – | – | – | –
11 | 0.14 | 55.4 | – | 10.8 | 16.5 | CS(=O)(=O)c1ccc(C2C(c3ccc(F)cc3)=NOC23Cc2ccccc2C3=O)cc1 (configuration not stated) | 3.21 | 0.64 | – | – | – | –
